Test results taken from the NIST ThermoML archive (doi:10.1016/j.jct.2018.10.030).
Numbers after ± are expanded uncertainties.

Settings: 298.15 K; 101.33 kPa; Liquid; Vibrating tube method

mass density [kg/m3] | Structure (SMILES)
953.05 ± 0.21 | CCCC(=O)O [butanoic acid]
1095.34 ± 0.21 | C[S+](C)[O-] [dimethyl sulfoxide]
816.83 ± 3.2 | CCCCCCC=O [heptanal]
830.01 ± 1 | CCCCCC=O [hexanal]
923.07 ± 0.21 | CCCCCC(=O)O [hexanoic acid]
906 ± 0.32 | CCCCCCCC(=O)O [octanoic acid]
934.75 ± 0.21 | CCCCC(=O)O [pentanoic acid]
780.69 ± 0.23 | CC(C)O [propan-2-ol]
